One block for each molecule: values may come before it.
What was measured:
[1] = tested on: Treg suppression of T cell proliferation; assay: Treg suppression assay (CFSE T cell proliferation, 3 days, varying Treg:T cell ratios); format: cell-based; details: for suppression of Treg in vitro: 500x dilution of 10 mM, 20 micromolar, FIG. 10; for T cell proliferation (percentage of proliferated cells): Treg:Teff=1:1
Text: FIG. 8. are flow cytometry dataplots showing the enhancement of TIP60 inhibitor B7 suppression of Treg in vitro. Individual peaks reflect number of cells divisions under the standard test conditions (3 days), where the cell populations are dyed with CFSE (carboxyfluorescen diacetate, succimidyl ester). FIG. 8A are the data for DMSO without B7; FIG. 8B are the data for B7-1000×; FIG. 8C are the data for B7-4000×; and FIG. 8D are the data for B7-8000. In each case, the 1000×/4000×/8000× refers to the dilution factor of the B7, from an original 10 mM solution of B7; e.g, 1000× represents a solution diluted by a factor of 1000, so as to result in a 10 micromolar solution. The numbers in the upper left corner of the plot (e.g., 88, 81, 74, 65, and 37 of FIG. 8A) refer to the measured percentage of proliferated cells.
FIG. 10. are flow cytometry dataplots showing the enhancement of TIP60 inhibitors B7 suppression of Treg in vitro. FIG. 10A are the data for DMSO without any B7-type inhibitor; FIG. 10B are the data for B7-500×; FIG. 10C are the data for B7A-500×; FIG. 10D are the data for B7B-500; and FIG. 10D are the data for B7C-500×. In each case, the 500× refers to the dilution factor of the B7/B7A/B7B/B7C, from an original 10 mM solution of the compound; e.g, 500× represents a solution diluted by a factor of 500, so as to result in a 20 micromolar solution.
Several exemplary compounds of the present invention were screened at 10 μg/ml in vitro, at varying Treg:T cell ratios, using standard cell proliferation techniques (3 days, using CSFE dyes). Such techniques are well understood by those skilled in the art. For example, see Akimova T, Ge G, Golovina T, Mikheeva T, Wang L, Riley J L, Hancock W W., “Histone/protein deacetylase inhibitors increase suppressive functions of human FOXP3+ Tregs,” Clin Immunol. 2010 September; 136(3):348-63; Tao R, Hancock W W., Resistance of FOXP3+ regulatory T cells to Nur77-induced apoptosis promotes allograft survival,” PLoS One. 2008 May 28; 3(5):e2321; Tao R, Wang L, Murphy K M, Fraser C C, Hancock W W., “Regulatory T cell expression of herpesvirus entry mediator suppresses the function of B and T lymphocyte attenuator-positive effector T cells.,” J. Immunol. 2008 May 15; 180(10):6649-55; and Tao R, de Zoeten E F, Ozkaynak E, Chen C, Wang L, Porrett P M, Li B, Turka L A, Olson E N, Greene M I, Wells A D, Hancock W W., “Deacetylase inhibition promotes the generation and function of regulatory T cells,” Nat. Med. 2007 November; 13(11):1299-307 for the protocols used herein. Each of these references is incorporated by reference herein, at least for this purpose.
T cell proliferation was unimpaired in the absence of Treg cells (see left panels in FIG. 8A-D), but was increasingly impaired at increasing Treg concentration (for example, in FIG. 8A, increasing Treg:Tcell ratio from 0:1 to 1:1 reduced proliferation from 88% to 37% under otherwise identical conditions). […] Efficacy was also seen at 1 μg/ml for some compounds.

FOXP3 = FOXP3 bound on chromatin in SZ-4 T cells (Western blot); format: cell-based; details: FIG. 9
TIP60 = target: T1, TIP60 (Homo sapiens, UniProt Q92993); assay: TIP60 activity by acetylation of TIP60 or its substrate FOXP3 in transfected 293T cells (Ac-K immunoprecipitation, Western blot); format: cell-based; details: 4 hours
T1 construct: expressed in transfected cells; host or cells: 293T cells
T1 sequence (Q92993 whole entry, species assumed): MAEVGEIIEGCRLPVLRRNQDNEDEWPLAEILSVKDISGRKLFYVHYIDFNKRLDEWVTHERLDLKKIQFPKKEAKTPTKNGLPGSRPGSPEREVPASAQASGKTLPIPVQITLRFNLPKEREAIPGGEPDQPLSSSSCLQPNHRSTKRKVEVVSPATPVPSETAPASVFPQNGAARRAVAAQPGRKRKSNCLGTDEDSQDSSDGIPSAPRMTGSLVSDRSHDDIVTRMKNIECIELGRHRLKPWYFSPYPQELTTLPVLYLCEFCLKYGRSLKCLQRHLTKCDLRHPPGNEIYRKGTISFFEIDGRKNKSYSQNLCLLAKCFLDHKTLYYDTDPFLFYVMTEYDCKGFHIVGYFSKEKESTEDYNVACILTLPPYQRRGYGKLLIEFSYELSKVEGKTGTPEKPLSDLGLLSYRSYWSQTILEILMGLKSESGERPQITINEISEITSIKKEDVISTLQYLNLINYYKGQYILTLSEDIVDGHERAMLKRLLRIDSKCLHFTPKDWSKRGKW
Protocol: FIG. 11 illustrate the effect of B7G on TIP60. TIP60 activity was assessed by examining acetylation of TIP60 or its substrate FOXP3. Both TIP60 and FOXP3 were overexpressed in 293T cells. Acetylated proteins were first immunoprecipitated with the acetyl-lysine specific antibody Ac-K and then blotted with HRP conjugated antibodies to expression tags (HA for FOXP3 or FLAG for TIP60).
TIP60 is known to have acetyl transferase activity to acetylate itself (auto-acetylation) or substrates including FOXP3. To examine activity of B7G on TIP60, 293T cells were transfected with Flag-tagged TIP60 and HA-tagged FOXP3. 24 hours after transfection, cells were treated with various concentrations of B7G for 4 hours before cell lysates were collected. Acetylated proteins were precipitated by anti-acetyl lysine antibody Ac-K. FOXP3 and TIP60 in the lysate or precipitated by Ac-K antibody were identified by anti-HA-HRP and anti-FLAG-HRP respectively.

[2] = tested on: dextran sodium sulfate (DSS) colitis; assay: DSS model of colitis, reversal of established colitis; format: in vivo, mice
Protocol: FIG. 12A-C are the results of experiments described in Example 5. […] FIG. 12C provide graphical data for weight loss, bleeding score, and stool consistency (i.e., higher score reflects higher levels of diarrhea), wherein the mice were first subjected to DSS irritation, then subset populations were remedially treated after 8 days with the compound having Structure B7.
In a first test, the effects of exposure to dextran sodium sulfate (DSS) were evaluated, which results in a partially CD4-dependent inflammatory model of colitis, in wildtype (WT) versus TIP60dn C57BL/6 mice (8 mice/group).
Data were also generated using the compound of Structure B7 in the DSS model, in an experiment designed to test the ability of TIP60 inhibitor therapy to reverse established colitis by waiting until mice had ˜15% weight loss. In marked contrast to use of carrier DMSO alone, TIP60 inhibitor therapy (2 mg/kg/d, i.p.) reversed weight loss (p<0.01), blood in the stool (p<0.01) and diarrhea (p<0.005) (see FIG. 12C) and maintained colon length (p<0.01).

[3] = 2 mg/kg/d i.p., vs carrier DMSO, p<0.01

Structure (SMILES): O=C(Nc1ccc(Cl)cc1)C1CC(=O)N(CCc2ccc(Cl)cc2)C1 (stereo not drawn) [Compound B7A]
suppression of Treg in vitro [1]: enhancement

Structure (SMILES): COc1ccc(NC(=O)C2CC(=O)N(CCc3ccc(Cl)cc3)C2)cc1 (stereo not drawn) [Compound B7B]
suppression of Treg in vitro [1]: enhancement

Structure (SMILES): Cc1ccc2cc(NC(=O)C3CC(=O)N(CCc4ccc(Cl)cc4)C3)ccc2n1 (stereo not drawn) [Compound B7C]
suppression of Treg in vitro [1]: enhancement
FOXP3 bound on chromatin (FOXP3): intervening with FOXP3 bound on chromatin

Acetylated FOXP3 (TIP60; 32 μg/ml): reduced significantly
Acetylated TIP60 (TIP60; 32 μg/ml): reduced significantly
TIP60 auto-acetylation (TIP60; lower concentration): slightly increase
TIP60 expression level in total cell lysate (TIP60; various concentrations, FLAG-HRP): not significantly affected
FOXP3 expression level in total cell lysate (TIP60; various concentrations, HA-HRP): not significantly affected
Structure (SMILES): COc1ccc(CCN2CC(C(=O)Nc3ccc(F)c(Cl)c3)CC2=O)cc1OC (stereo not drawn) [Compound B7G]

Structure (SMILES): Cc1ccc(NC(=O)C2CC(=O)N(CCc3ccc(Cl)cc3)C2)cc1 (stereo not drawn) [Compound B7]
suppression of Treg in vitro [1]: enhancement
Treg activity (decreasing T cell proliferation) ([1]; B7 2.5 to 10 μM, dose dependent): enhanced the Treg activity
T cell proliferation in the absence of Treg cells ([1]; Treg:T cell 0:1, FIG. 8A-D left panels): unimpaired
T cell proliferation (percentage of proliferated cells) ([1]; highest B7 dose 10 μM (FIG. 8B, 1000x dilution)): 25%
T cell proliferation (percentage of proliferated cells) ([1]; intermediate B7 dose (FIG. 8C, 4000x dilution of 10 mM)): 30%
T cell proliferation (percentage of proliferated cells) ([1]; lowest B7 dose (FIG. 8D, 8000x dilution of 10 mM; text: 2.5 μM)): 37%
weight loss ([2]; 2 mg/kg/d i.p., started at ~15% weight loss, vs carrier DMSO, p<0.01): reversed
diarrhea ([2]; 2 mg/kg/d i.p., vs carrier DMSO, p<0.005): reversed
blood in the stool [2, 3]: reversed
colon length [2, 3]: maintained
colon length relative to unstressed control animal ([2]; single animal, 3% DSS then B7): about 94%
spleen size relative to control ([2]; single animal, 3% DSS then B7): comparable in size to that of the control
